Test results taken from patent US20220409629A1, “BENZODIAZEPINE DERIVATIVES FOR TREATING A RESPIRATORY SYNCYTIAL VIRUS (RSV) INFECTION” (priority 2019, published 2022).
pEC50: −log10 of the molar value.

Columns and labels:
[1] = Liver microsomal stability, rat; type: in vitro ADME; settings: pH 7.4; rat liver microsomes, 0.5 mg/mL protein, 1 μM compound, NADPH; >80% remaining at 45 min denoted >140; read-out: Liver Microsomal Stability: t1/2 (min); rat
Procedure, shortened: (§1)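 Pooled liver microsomes (0.5 mg/mL protein) in 0.1 M phosphate pH 7.4 with 1 μM compound (0.25% DMSO), started with 1 mM NADPH at 37° C; sampled 0-45 min, minus-NADPH control 45 min. LC-MS/MS depletion slope gave t1/2 and CLint.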

[2] = Liver microsomal stability, dog; type: in vitro ADME; settings: pH 7.4; dog liver microsomes, 0.5 mg/mL protein, 1 μM compound, NADPH; >80% remaining at 45 min denoted >140; read-out: Liver Microsomal Stability: t1/2 (min); dog
Procedure, shortened: as §1

RSV A2 = test: RSV plaque reduction assay; type: cell-based, respiratory syncytial virus (RSV); settings: human respiratory syncytial virus, HepG2; Hep-G2 cells, RSV A2, mean of at least two experiments
Procedure, shortened: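 RSV A2 (100 PFU/well) premixed with eight serial compound dilutions, added to confluent Hep-G2 monolayers for 2 h at 37° C, then held 2 days under CMC overlay containing compound (DMEM, 2% FBS). Plaques immunostained (HRP/TrueBlue) and counted; EC50 is 50% reduction versus virus control from 4-parameter fit, mean of ≥2 experiments.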

Cell cytotoxicity CC50 = type: cell-based; settings: human; mean of at least two experiments

Molecule `CCn1ncc(C(=O)N[C@H]2N=C(c3ccccc3)c3ccccc3NC2=O)c1-c1ccc(NC(C)C)nc1F` [Example 3, 1-Ethyl-5-[2-fluoro-6-(propan-2-ylamino)pyridin-3-yl]-N-[(3S)-2-oxo-5-phenyl-1,3-dihydro-1,4-benzodiazepin-3-yl]pyrazole-4-carboxamide] has a half-life at 1 µM [1] of 88.8 min, a half-life at 1 µM [2] of 45.3 min and a pEC50 (RSV A2) of 7.01. The CC50 at 2 days (Cell cytotoxicity CC50) was > 25000 nM.

`CCn1ncc(C(=O)N[C@H]2N=C(c3ccccc3)c3ccccc3NC2=O)c1-c1ccc(NC2CC2)nc1F` [Example 4, 1-Ethyl-5-[2-fluoro-6-(cyclopropylamino)pyridin-3-yl]-N-[(3S)-2-oxo-5-phenyl-1,3-dihydro-1,4-benzodiazepin-3-yl]pyrazole-4-carboxamide] gave a half-life [1] of 68.5 min, a half-life [2] of 14.4 min and a pEC50 (RSV A2) of 7.38. For the same molecule, the CC50 (Cell cytotoxicity CC50) was > 25000 nM.

With `O=C(N[C@H]1N=C(c2ccccc2)c2cccc(F)c2NC1=O)c1cnn(C2CCOCC2)c1-c1ccc(NC2CC2)nc1F` [Example 21, 5-[6-(Cyclopropylamino)-2-fluoropyridin-3-yl]-N-[(3S)-9-fluoro-2-oxo-5-phenyl-1,3-dihydro-1,4-benzodiazepin-3-yl]-1-(oxan-4-yl)pyrazole-4-carboxamide] the half-life [1] was 87.6 min, the half-life [2] was 124 min and the pEC50 (RSV A2) was 7.68. The CC50 (Cell cytotoxicity CC50) was > 25000 nM.

With `CC(C)Nc1ccc(-c2c(C(=O)N[C@H]3N=C(c4ccccc4)c4cccc(F)c4NC3=O)cnn2C2CCOCC2)c(F)n1` [Example 22, N-[(3S)-9-fluoro-2-oxo-5-phenyl-1,3-dihydro-1,4-benzodiazepin-3-yl]-5-[2-fluoro-6-(propan-2-ylamino)pyridin-3-yl]-1-(oxan-4-yl)pyrazole-4-carboxamide] the half-life [1] was > 140 min, the half-life [2] was 88.6 min and the pEC50 (RSV A2) was 7.40. The CC50 (Cell cytotoxicity CC50) was > 25000 nM.

With `CCNc1ccc(-c2c(C(=O)N[C@H]3N=C(c4ccccc4)c4cccc(F)c4NC3=O)cnn2C2CCOCC2)c(F)n1` [Example 24, 5-[6-(Ethylamino)-2-fluoropyridin-3-yl]-N-[(3S)-9-fluoro-2-oxo-5-phenyl-1,3-dihydro-1,4-benzodiazepin-3-yl]-1-(oxan-4-yl)pyrazole-4-carboxamide] the half-life [1] was 484 min, the half-life [2] was 198 min and the pEC50 (RSV A2) was 7.48. For the same molecule, the CC50 (Cell cytotoxicity CC50) was > 25000 nM.
